The data set in a line: Presence of prodrug in mouse and absorbency (plasma AUC after oral administration). The conditions noted are these: male, Balb/cA, mouse, 17 umol/kg, mice, 17 μmol/kg, administered compound itself in plasma, read-out: AUC0-6hr. It counts as in vivo. The protocol: The dosage amounts of the compounds of Comparative Examples 1 to 5 and Examples 1 to 26 are those (mole/10 mL/kg) shown in Tables. Solutions for administration were prepared with an 0.5% aqueous solutions of HPMC so as to satisfy the dosage amounts.
Note that, the “amount of mole/10 mL/kg” means as follows: for example “10 mmol/10 mL/kg” means that 10 mmol of a test compound per body-weight (1 kg) of a mouse was dispersed or dissolved in a solution (10 mL) for administration. The same applies hereinafter.
The solutions for administration prepared above were orally administered to mice (Balb/cA, male) not fasted each by use of an oral administration sonde.
The mice were anesthetized with isoflurane 0.5, 1, 2, 4 and 6 hours after administration and blood was taken from the facial vein by use of a specific needle (animal lancet) and a heparin-coated hematocrit tube.
The blood sampled was immediately centrifuged (13000 rpm, 2 minutes, 4° C.) to prepare the plasma samples. After proteins were removed from the plasma samples, the concentrations of the test compound in the plasma samples were measured by LC/MS/MS.
The value of “area under the curve” (AUC) of drug concentration in blood versus time was calculated using analysis software such as Phoenix (registered trademark) WinNonlin (registered trademark).
In Table 3, “Comparative Example 1” and “Comparative Example 2” represent the “compound (Br form) of Comparative Example 1” and the “compound (I form) of Comparative Example 2”, respectively. In Table 4, “Comparative Example 6” represents the “compound (C1 form) of Comparative Example 6”.

This is an account of results in patent US20220233566A1, “NOVEL CARBONATE COMPOUND HAVING PYRROLOPYRIMIDINE SKELETON OR PHARMACEUTICALLY ACCEPTABLE SALT THEREOF” (TAIHO PHARMACEUTICAL CO., LTD., priority 2019, published 2022).

Molecules are shown by their SMILES.

As to `Nc1ncnc2c1c(Br)cn2[C@@H]1O[C@H](CO)[C@@H](O)[C@@H]1F` [Comparative Example 1, (2R,3R,4S,5R)-5-(4-amino-5-bromo-7H-pyrrolo[2,3-d]pyrimidin-7-yl)-4-fluoro-2-(hydroxymethyl) tetrahydrofuran-3-ol], the AUC(0-t) was determined as 2.07 µM·h.
